# Experimental data reported in the supplement of paper PMC10307832.
# Columns and labels:
# Experiment in all cases: relative viability (nuclei count vs DMSO), 5 days (fraction); higher = more cells survive
# Nelarabine + Phenformin = compound: COc1nc(N)nc2c1ncn2[C@@H]1O[C@H](CO)[C@@H](O)[C@@H]1O [Nelarabine] + N=C(N)NC(=N)NCCc1ccccc1 [Phenformin] (partner 250 µM)
# Method in brief: (§1)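 Relative viability was taken as the ratio of nuclei in treated wells to nuclei in vehicle wells. Lung cancer cell lines in 1536-well plates received compounds by pin tool one day after seeding, either one drug alone or a fixed anchor-drug dose plus five library-drug doses (not always all listed) in √10 steps. Nuclei were counted on 4× images after 5 days of treatment, and values are medians of duplicate plates.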
# Adavosertib = compound: C=CCn1c(=O)c2cnc(Nc3ccc(N4CCN(C)CC4)cc3)nc2n1-c1cccc(C(C)(C)O)n1 [Adavosertib]
# Method in brief: (§2)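 Five library-drug doses spaced by √10 were pinned onto vehicle-anchored 1536-well plates of lung cancer cell lines that had been kept overnight at 37 °C. Cells went 5 days without medium change, then were fixed, permeabilised and Hoechst-stained together, imaged at 4× and counted by MetaXpress. Viability is the ratio of treated-well to vehicle-well nuclei, taken as a median over plates. Plates required control CV below 25% and at least one doubling.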
# Nelarabine = compound: COc1nc(N)nc2c1ncn2[C@@H]1O[C@H](CO)[C@@H](O)[C@@H]1O [Nelarabine]
# Method in brief: as §2
# Adavosertib + Navitoclax = compound: C=CCn1c(=O)c2cnc(Nc3ccc(N4CCN(C)CC4)cc3)nc2n1-c1cccc(C(C)(C)O)n1 [Adavosertib] + CC1(C)CCC(c2ccc(Cl)cc2)=C(CN2CCN(c3ccc(C(=O)NS(=O)(=O)c4ccc(N[C@H](CCN5CCOCC5)CSc5ccccc5)c(S(=O)(=O)C(F)(F)F)c4)cc3)CC2)C1 [Navitoclax] (partner 0.5 µM)
# Method in brief: as §1
Cell Line,relative viability (Nelarabine + Phenformin; first compound 0.01 µM),relative viability (Nelarabine + Phenformin; first compound 0.03162 µM),relative viability (Nelarabine + Phenformin; first compound 0.1 µM),relative viability (Nelarabine + Phenformin; first compound 0.3162 µM),relative viability (Nelarabine + Phenformin; first compound 1 µM),relative viability (Adavosertib; 0.01 µM),relative viability (Adavosertib; 0.03162 µM),relative viability (Adavosertib; 0.1 µM),relative viability (Adavosertib; 0.3162 µM),relative viability (Nelarabine; 0.01 µM),relative viability (Nelarabine; 0.03162 µM),relative viability (Nelarabine; 0.1 µM),relative viability (Nelarabine; 0.3162 µM),relative viability (Nelarabine; 1 µM),relative viability (Adavosertib + Navitoclax; first compound 0.01 µM),relative viability (Adavosertib + Navitoclax; first compound 0.03162 µM),relative viability (Adavosertib + Navitoclax; first compound 0.1 µM),relative viability (Adavosertib + Navitoclax; first compound 0.3162 µM)
NCI-H1623,0.44,0.508,0.584,0.544,0.545,0.895,0.915,0.949,1.01,0.869,1.12,0.965,0.979,0.931,–,–,–,–
HARA,0.62,0.488,0.422,0.579,0.505,0.929,1.04,1.01,0.897,1.2,1.14,0.97,1.06,1.01,1.11,1.11,1.13,1.1
NCI-H2126,0.593,0.545,0.51,0.508,0.517,1.01,1.04,0.969,1.07,1.08,0.952,0.961,1.03,0.988,0.882,0.871,0.871,0.894
NCI-H1703,–,–,–,–,–,1.29,0.892,1.08,0.249,1.3,1,1.06,1.06,0.953,1.27,0.877,1.11,0.157
UMC-11,0.33,0.325,0.347,0.294,0.31,0.973,0.943,1,1.08,1.1,0.821,0.987,1.07,0.996,0.311,0.287,0.331,0.321
PC-14,0.645,0.46,0.67,0.556,0.447,1.01,1.01,1.01,0.605,1.19,0.99,1.21,1.07,1.03,1.06,0.963,1.02,0.528
NCI-H1792,0.211,0.4,0.261,0.3,0.323,0.749,0.915,0.75,0.895,0.973,0.928,1.16,1.06,0.855,0.529,0.659,0.655,0.643
NCI-H1651,0.362,0.329,0.46,0.353,0.355,0.947,0.985,0.979,0.951,1.1,1.07,1.06,1.08,1.01,0.993,1.13,1.17,0.748
HCC-15,0.582,0.443,0.426,0.51,0.498,0.979,1.05,1.07,1.23,1.16,0.978,1.06,1.07,1.06,0.699,0.712,0.801,0.821
NCI-H2170,0.393,0.39,0.388,0.421,0.383,1.03,0.959,0.888,0.819,1.16,0.912,0.956,1.07,1,0.605,0.57,0.482,0.313
SW 1573,0.548,0.422,0.406,0.356,0.389,0.99,1.03,1.14,0.965,1.13,1.04,0.995,1.05,0.979,1.07,0.988,1.29,0.926
NCI-H661,0.282,0.277,0.276,0.274,0.258,0.996,1.03,1.08,0.769,1.07,1.14,1,1.04,0.999,–,–,–,–
PC-3 [JPC-3],0.475,0.437,0.473,0.472,0.459,1.04,1.04,1.04,1.05,1.08,1.09,1.14,1.06,1.06,0.842,0.782,0.797,0.716
NCI-H358,0.441,0.308,0.305,0.356,0.377,0.838,0.785,0.752,0.467,1.1,0.928,0.804,1.06,1.05,–,–,–,–
COR-L23,0.525,0.385,0.356,0.416,0.448,1.14,1.02,1.03,0.585,1.49,1.21,0.96,1.06,1.07,1.14,1.03,1.14,0.293
IA-LM,–,–,–,–,–,0.927,0.953,1,1.03,1.1,1.12,1.06,1.07,0.971,0.821,0.742,0.976,0.668
